# Data reported in article PMC6608980, “The lectin-specific activity of Toxoplasma gondii microneme proteins 1 and 4 binds Toll-like receptor 2 and 4 N-glycans to regulate innate immune priming” (PLoS Pathogens, 2019).
# Tests used:
# rMIC1 = molecular target: T1, rMIC1 (Toxoplasma gondii, UniProt A0A125YMF8); test: microplate sugar-inhibition of binding to coated fetuin, antibody detection; conditions: 25 °C, 2 h; competes with fetuin glycans at the carbohydrate-recognition domain
# T1 construct: gene MIC1
# rMIC4 = molecular target: T2, rMIC4 (Toxoplasma gondii, UniProt Q9XZH7); test: microplate sugar-inhibition of binding to coated asialofetuin, antibody detection; conditions: 25 °C, 2 h; competes with asialofetuin glycans at the carbohydrate-recognition domain
# T2 construct: gene MIC4
# T2 sequence (Q9XZH7 26-580): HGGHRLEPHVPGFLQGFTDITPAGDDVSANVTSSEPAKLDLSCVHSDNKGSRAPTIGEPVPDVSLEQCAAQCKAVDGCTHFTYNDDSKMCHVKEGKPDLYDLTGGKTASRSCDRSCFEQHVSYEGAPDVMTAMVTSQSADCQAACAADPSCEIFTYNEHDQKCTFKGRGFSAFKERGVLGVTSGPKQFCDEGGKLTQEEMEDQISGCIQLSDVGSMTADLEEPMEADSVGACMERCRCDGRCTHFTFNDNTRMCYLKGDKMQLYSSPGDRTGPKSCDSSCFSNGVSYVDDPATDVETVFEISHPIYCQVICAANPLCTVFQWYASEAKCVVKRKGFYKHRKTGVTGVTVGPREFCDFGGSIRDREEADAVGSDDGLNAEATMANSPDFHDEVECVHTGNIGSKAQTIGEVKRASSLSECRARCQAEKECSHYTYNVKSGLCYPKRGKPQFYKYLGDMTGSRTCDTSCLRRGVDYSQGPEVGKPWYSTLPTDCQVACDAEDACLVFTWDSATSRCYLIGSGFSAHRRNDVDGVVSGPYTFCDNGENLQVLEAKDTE
# T1 sequence (A0A125YMF8 entry or part of it): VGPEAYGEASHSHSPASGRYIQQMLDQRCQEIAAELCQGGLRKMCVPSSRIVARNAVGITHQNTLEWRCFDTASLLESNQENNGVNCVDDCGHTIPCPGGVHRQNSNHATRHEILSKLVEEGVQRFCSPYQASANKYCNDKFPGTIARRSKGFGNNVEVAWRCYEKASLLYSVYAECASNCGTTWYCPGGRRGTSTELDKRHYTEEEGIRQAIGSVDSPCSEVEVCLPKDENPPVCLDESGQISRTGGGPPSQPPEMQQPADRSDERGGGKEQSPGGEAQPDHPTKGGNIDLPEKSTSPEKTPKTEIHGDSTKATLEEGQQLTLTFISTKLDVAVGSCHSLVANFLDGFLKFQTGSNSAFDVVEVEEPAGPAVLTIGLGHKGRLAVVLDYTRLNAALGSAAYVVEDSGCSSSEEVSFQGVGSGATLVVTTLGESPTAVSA
Structure (SMILES),"microplate sugar-inhibition of binding to coated fetuin, antibody detection (rMIC1)","microplate sugar-inhibition of binding to coated asialofetuin, antibody detectio (rMIC4)"
CC(=O)N[C@H]1[C@H]([C@H](O)[C@H](O)CO)O[C@@](O[C@H]2[C@@H](O)[C@@H](CO)O[C@@H](O[C@H]3[C@H](O)[C@@H](O)C(O)O[C@@H]3CO)[C@@H]2O)(C(=O)O)C[C@@H]1O (stereo partly drawn) [α(2–3)-sialyllactose],Sialyllactose inhibited the binding of rMIC1 to fetuin,
CC(=O)N[C@H]1C(O)O[C@H](CO)[C@@H](O)[C@@H]1O[C@@H]1O[C@H](CO)[C@H](O)[C@H](O)[C@H]1O (some centres unmarked) [lacto-N-biose],,lacto-N-biose inhibited the binding of rMIC4 to asialofetuin
